Reference: patent publication US9131698B2, “Biocidal compositions and methods of use” (Dow Global Technologies LLC, priority 2011, dated 2015)

Legend:
Format in all cases: cell-based
[1] = test system: Desulfovibrio longus ATCC 51456; experiment: Biocidal efficacy against anaerobic bacteria, 24 hours, minimum concentration for 99.999% bacterial reduction; conditions: 35° C.
Method: (§1) The synergy indexes reported in the following examples are calculated using the following equation: Synergy Index=Ca/CA+Cb/CB
(§2) Ca: Concentration of biocide A required to achieve a certain level of bacterial kill when used in combination with B
(§3) CA: Concentration of biocide A required to achieve a certain level of bacterial kill when used alone
(§4) Cb: Concentration of biocide B required to achieve a certain level of bacterial kill when used in combination with A
(§5) CB: Concentration of biocide B required to achieve a certain level of bacterial kill when used alone.
(§6) A synergy index (SI) of 1 indicates additivity, a synergy index of less than 1 indicates synergy, and a synergy index greater than 1 indicates antagonism.
(§7) Inside an anaerobic chamber (Bactron anaerobic chamber), a deoxygenated sterile salt solution (3.1183 g of NaCl, 1.3082 mg of NaHCO3, 47.70 mg of KCl, 72.00 mg of CaCl2, 54.49 mg of MgSO4, 172.28 mg of Na2SO4, 43.92 mg of Na2CO3 in 1 L water) is inoculated with Desulfovibrio longus ATCC 51456 to a final bacterial concentration of 10^6 to 10^7 CFU/mL.

[2] = test system: Desulfovibrio longus ATCC 51456; experiment: Biocidal efficacy against SRB, 2 hour treatment time
Method: as §1, §2, §3, §4, §5, §6, §7

[3] = test system: Pseudomonas aeruginosa ATCC 10145 and Staphylococcus aureus ATCC 6538; experiment: Biocidal efficacy against aerobic bacteria, 2 hr, minimum concentration for complete bacterial kill; conditions: 37° C.
Method: as §1, §2, §3, §4, §5, §6
(§8) Synergy Index is then calculated.

[4] = test system: Biofilms of Desulfovibrio longus ATCC 51456; experiment: Biofilm removal, Calgary Biofilm Device, crystal violet staining; conditions: 2 hours treatment
Method: Biofilms of Desulfovibrio longus ATCC 51456 are grown in a Calgary Biofilm Device (Innovotech, Alberta, Canada) at 35° C. and under anaerobic conditions for 72 hours with shaking (125 rpm). Modified Baar's Medium (ATCC #1249 Broth) is used as culture medium and the medium is changed after 48 hrs of incubation. […] After biocide treatment, the pegs are rinsed again with deoxygenated sterile 0.85% NaCl solution and then the total biofilm left on each peg is measured according to the following description. The biofilm is fixed with 99% methanol and, after air drying, the pegs are stained with 2% (w/v) crystal violet and washed with tap water. The pegs are then air dried and the crystal violet bound to the biofilm is extracted with 33% glacial acetic acid. The total remaining biofilm is determined by the optical density (OD) of the extracted solution at 580 nm.

[5] = test system: Pseudomonas aeruginosa ATCC 10145 and Staphylococcus aureus ATCC 6538; experiment: Biocidal efficacy against aerobic bacteria, 24 hours, minimum concentration for 99.9% bacterial kill; conditions: 37° C.
Method: as §1, §2, §3, §4, §5, §6, §8

[6] = PHMB part of minimum concentration
[7] = THPS part of minimum concentration

Substance: tetrakis (hydroxymethyl) phosphonium sulfate [THPS]
- Concentration (ppm a.i.) for anaerobic bacteria kill, PHMB ([1]; PHMB part of minimum tested concentration for 99.999% bacterial reduction): 0.0 ppm a.i.
- Concentration (ppm a.i.) for anaerobic bacteria kill, THPS ([1]; THPS part of minimum tested concentration for 99.999% bacterial reduction): 8.8 ppm a.i.
- Concentration (ppm a.i.) for complete SRB kill, PHMB [2, 6]: 0.0 ppm a.i.
- Concentration (ppm a.i.) for complete SRB kill, THPS [2, 7]: 22.2 ppm a.i.
- Concentration (ppm a.i.) for aerobic bacteria kill, PHMB ([3]; PHMB part of minimum concentration for complete bacterial kill): 0 ppm a.i.
- Concentration (ppm a.i.) for aerobic bacteria kill, THPS ([3]; THPS part of minimum concentration for complete bacterial kill): 50 ppm a.i.
- Remaining biofilm, OD580 (optical density of biofilm captured crystal violet) ([4]; 50 ppm active): 0.59
- Remaining biofilm, OD580 (optical density of biofilm captured crystal violet) ([4]; 200 ppm active): 1.03
- Concentration (ppm a.i.) for 99.9% bacterial kill, PHMB [5, 6]: 0.0 ppm a.i.
- Concentration (ppm a.i.) for 99.9% bacterial kill, THPS [5, 7]: 19.8 ppm a.i.
